{"source": "patent US20180125796A1", "about": "“TREATMENT OF MYCOBACTERIAL INFECTION” (priority 2015, published 2018)", "system": "NPC1", "type": "cell-based, Chinese Hamster"}
{"substance": "trehalose dimycolate [TDM]", "values": [{"measurement": "resistance to phenotype induction by TDM versus extent of NPC1 overexpression", "result": "cells over-expressing NPC1 by 15-fold were more resistant than those over-expressing NPC1 5-fold"}, {"measurement": "induction of NPC cellular phenotypes by TDM in CHO cells overexpressing NPC1, versus wild-type cells", "setting": "FIG. 10B", "result": "more resistant to induction of NPC cellular phenotypes than wild-type cells"}]}
